Reference: publication PMC11432330, “Novel Drug-like HsrA Inhibitors Exhibit Potent Narrow-Spectrum Antimicrobial Activities against Helicobacter pylori” (International Journal of Molecular Sciences, 2024)

Tested on: H. pylori 26695
Assay: In vivo inhibition of HsrA: RNA-Seq transcriptomic analysis of exposed cells
Format: cell-based, Helicobacter pylori
Conditions: for log2 Fold Change: exposed to lethal concentrations vs control
Experimental: Bacterial growth from three blood agar plates of H. pylori ATCC 700392 (aka 26695) incubated for 48 h at 37 °C under microaerobic conditions was aseptically resuspended in BHI + FBS and adjusted to 10^7 CFU/mL. BHI broth cultures were incubated microaerobically at 37 °C for 24 h. […] At this time, bacterial growth was stopped by adding 1.5 mL ice-cold RNA stop solution (95% absolute ethanol, 5% acid-buffered phenol) and subsequently incubated on ice. Control samples were exposed to the same amount of DMSO instead of the inhibitor. Helicobacter cells from all samples were harvested by centrifugation (4000 rpm at 4 °C for 10 min), then the pellets were quickly frozen by immersion in liquid nitrogen and stored at −80 °C.
RNA-Seq analysis was performed by GENEWIZ (Azenta Life Sciences, Leipzig, Germany). Frozen cell pellets from two biological replicates of each treatment condition were properly submitted to GENEWIZ in dry ice. RNA-Seq libraries were prepared according to standard protocols via rRNA depletion, RNA fragmentation and random priming, reverse transcription, 5’-phosphorylation and dA-tailing of cDNAs, adaptor ligation, and PCR enrichment. Once the quality of each library was confirmed, they were sequenced on an Illumina NovaSeq 6000 (Illumina, San Diego, CA, USA) with 150-bp paired-ends. Raw sequence reads were filtered to remove possible adapter sequences and nucleotides with poor quality using Trimmomatic v.0.36 [105]. The trimmed reads were subsequently mapped to the H. pylori strain 26695 reference genome NC_000915.1 available on NCBI, by using the Bowtie2 aligner v.2.2.6 [106]. Unique gene hit counts were calculated by using featureCounts from the Subread package v.1.5.2. Only unique reads that fell within the gene regions were counted. Using DESeq2 [108], a comparison of the gene expression between the control and treated groups of samples was performed. The Wald test was used to generate p-values and log2 fold changes. Genes with an adjusted p-value < 0.05 and absolute log2 fold change >1 were considered as differentially expressed genes (DEGs) for each comparison. The RNA-Seq data generated in this study have been deposited in ArrayExpress with the accession number E-MTAB-14255.

NC(=NOC(=O)Nc1ccc(Cl)cc1)c1csc([N+](=O)[O-])c1 [Ligand V, N′-{[(4-chloroanilino)carbonyl]}oxy-5-nitrothiophene-3-carboximidamide] was tested, and the “log2 Fold Change HP0986” value (gene HP0986, lethal concentrations of V vs control) was 0.434, the “log2 Fold Change” value (gene HP0987) was -0.503 and the “log2 Fold Change HP0989” value (gene HP0989, lethal concentrations of V vs control) was 0.305. For the same compound, the “log2 Fold Change HP0993” value (gene HP0993, lethal concentrations of V vs control) was 0.415, the “log2 Fold Change HP0995” value (gene HP0995, lethal concentrations of V vs control) was 0.339 and the “log2 Fold Change HP0997” value (gene HP0997, lethal concentrations of V vs control) was 0.344. The “log2 Fold Change HP1008” value (gene HP1008, lethal concentrations of V vs control) was 0.406, the “log2 Fold Change HP1023” value (gene HP1023, lethal concentrations of V vs control) was 0.173 and the “log2 Fold Change HP1030” value (gene HP1030, lethal concentrations of V vs control) was 0.181. For the same compound, the “log2 Fold Change HP1036” value (gene HP1036, lethal concentrations of V vs control) was 0.464, the “log2 Fold Change” value (gene HP1042) was -0.579 and the “log2 Fold Change HP1057” value (gene HP1057, lethal concentrations of V vs control) was 0.304. For the same compound, the “log2 Fold Change” value (gene HP1067) was -0.595, the “log2 Fold Change HP1080” value (gene HP1080, lethal concentrations of V vs control) was 0.450 and the “log2 Fold Change HP1083” value (gene HP1083, lethal concentrations of V vs control) was 0.380. The “log2 Fold Change HP1088” value (gene HP1088, lethal concentrations of V vs control) was 0.367, the “log2 Fold Change HP1091” value (gene HP1091, lethal concentrations of V vs control) was 0.326 and the “log2 Fold Change HP1094” value (gene HP1094, lethal concentrations of V vs control) was 0.330. The “log2 Fold Change HP1095” value (gene HP1095, lethal concentrations of V vs control) was 0.451, the “log2 Fold Change HP1096” value (gene HP1096, lethal concentrations of V vs control) was 0.362 and the “log2 Fold Change HP1098” value (gene HP1098, lethal concentrations of V vs control) was 0.266. The “log2 Fold Change” value (gene HP1102) was 1.324, the “log2 Fold Change” value (gene HP1112) was -0.531 and the “log2 Fold Change HP1113” value (gene HP1113, lethal concentrations of V vs control) was 0.235. The “log2 Fold Change HP1115” value (gene HP1115, lethal concentrations of V vs control) was 0.309, the “log2 Fold Change HP1120” value (gene HP1120, lethal concentrations of V vs control) was 0.296 and the “log2 Fold Change HP1122” value (gene HP1122, lethal concentrations of V vs control) was 0.364. For the same compound, the “log2 Fold Change HP1125” value (gene HP1125, lethal concentrations of V vs control) was 0.243, the “log2 Fold Change HP1132” value (gene HP1132, lethal concentrations of V vs control) was 0.451 and the “log2 Fold Change HP1139” value (gene HP1139, lethal concentrations of V vs control) was 0.341. For the same compound, the “log2 Fold Change HP1140” value (gene HP1140, lethal concentrations of V vs control) was 0.260, the “log2 Fold Change HP1142” value (gene HP1142, lethal concentrations of V vs control) was 0.424 and the “log2 Fold Change HP1154” value (gene HP1154, lethal concentrations of V vs control) was 0.259. For the same compound, the “log2 Fold Change HP1157” value (gene HP1157, lethal concentrations of V vs control) was 0.263, the “log2 Fold Change” value (gene HP1159) was -0.549 and the “log2 Fold Change HP1164” value (gene HP1164, lethal concentrations of V vs control) was 0.208. For the same compound, the “log2 Fold Change HP1165” value (gene HP1165, lethal concentrations of V vs control) was 0.470, the “log2 Fold Change HP1171” value (gene HP1171, lethal concentrations of V vs control) was 0.290 and the “log2 Fold Change” value (gene HP1184) was -0.471. For the same compound, the “log2 Fold Change HP1193” value (gene HP1193, lethal concentrations of V vs control) was 0.413, the “log2 Fold Change” value (gene HP1196) was -0.491 and the “log2 Fold Change HP1218” value (gene HP1218, lethal concentrations of V vs control) was 0.194. For the same compound, the “log2 Fold Change HP1221” value (gene HP1221, lethal concentrations of V vs control) was 0.426, the “log2 Fold Change HP1222” value (gene HP1222, lethal concentrations of V vs control) was 0.384 and the “log2 Fold Change HP1226” value (gene HP1226, lethal concentrations of V vs control) was 0.186. The “log2 Fold Change” value (gene HP1232) was -0.511, the “log2 Fold Change HP1234” value (gene HP1234, lethal concentrations of V vs control) was 0.340 and the “log2 Fold Change” value (gene HP1243) was 1.352. The “log2 Fold Change HP1251” value (gene HP1251, lethal concentrations of V vs control) was 0.458, the “log2 Fold Change” value (gene HP1258) was -0.491 and the “log2 Fold Change HP1261” value (gene HP1261, lethal concentrations of V vs control) was 0.181. For the same compound, the “log2 Fold Change HP1262” value (gene HP1262, lethal concentrations of V vs control) was 0.367, the “log2 Fold Change HP1264” value (gene HP1264, lethal concentrations of V vs control) was 0.389 and the “log2 Fold Change HP1267” value (gene HP1267, lethal concentrations of V vs control) was 0.146. For the same compound, the “log2 Fold Change” value (gene HP1270) was -0.476, the “log2 Fold Change HP1285” value (gene HP1285, lethal concentrations of V vs control) was 0.248 and the “log2 Fold Change HP1322” value (gene HP1322, lethal concentrations of V vs control) was 0.318. The “log2 Fold Change HP1337” value (gene HP1337, lethal concentrations of V vs control) was 0.239, the “log2 Fold Change” value (gene HP1343) was -0.493 and the “log2 Fold Change” value (gene HP1346) was -0.518. The “log2 Fold Change HP1352” value (gene HP1352, lethal concentrations of V vs control) was 0.160, the “log2 Fold Change” value (gene HP1355) was -0.601 and the “log2 Fold Change” value (gene HP1357) was -0.489. The “log2 Fold Change HP1358” value (gene HP1358, lethal concentrations of V vs control) was 0.185, the “log2 Fold Change HP1359” value (gene HP1359, lethal concentrations of V vs control) was 0.220 and the “log2 Fold Change HP1361” value (gene HP1361, lethal concentrations of V vs control) was 0.344. The “log2 Fold Change HP1363” value (gene HP1363, lethal concentrations of V vs control) was 0.291, the “log2 Fold Change HP1366” value (gene HP1366, lethal concentrations of V vs control) was 0.348 and the “log2 Fold Change HP1371” value (gene HP1371, lethal concentrations of V vs control) was 0.280. For the same compound, the “log2 Fold Change HP1377” value (gene HP1377, lethal concentrations of V vs control) was 0.474, the “log2 Fold Change HP1380” value (gene HP1380, lethal concentrations of V vs control) was 0.326 and the “log2 Fold Change” value (gene HP1381) was -0.548. The “log2 Fold Change HP1385” value (gene HP1385, lethal concentrations of V vs control) was 0.232, the “log2 Fold Change HP1404” value (gene HP1404, lethal concentrations of V vs control) was 0.393 and the “log2 Fold Change” value (gene HP1411) was 1.307. For the same compound, the “log2 Fold Change HP1433” value (gene HP1433, lethal concentrations of V vs control) was 0.238, the “log2 Fold Change HP1434” value (gene HP1434, lethal concentrations of V vs control) was 0.407 and the “log2 Fold Change HP1435” value (gene HP1435, lethal concentrations of V vs control) was 0.348. For the same compound, the “log2 Fold Change HP1436” value (gene HP1436, lethal concentrations of V vs control) was 0.297, the “log2 Fold Change HP1438” value (gene HP1438, lethal concentrations of V vs control) was 0.319 and the “log2 Fold Change” value (gene HP1442) was -0.497.
